From PubChem BioAssay (NCI)
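Cells were grown in 96-well plates and exposed to each compound for 48 hours at five concentrations; endpoints were interpolated linearly between bracketing concentrations, or set to the highest concentration if not reached. Definition used: TGI = concentration required for complete inhibition of growth.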

Key:
Assay in all cases: NCI tumour cell line growth inhibition, 48 h
SF-539 CNS = tested on: SF-539 CNS
DU-145 prostate = tested on: DU-145 prostate
MDA-N = tested on: MDA-N
UO-31 renal = tested on: UO-31 renal
ACHN renal = tested on: ACHN renal
SK-MEL-28 melanoma = tested on: SK-MEL-28 melanoma
OVCAR-4 ovarian = tested on: OVCAR-4 ovarian
NCI-H23 lung = tested on: NCI-H23 lung
MALME-3M melanoma = tested on: MALME-3M melanoma
OVCAR-3 ovarian = tested on: OVCAR-3 ovarian

SMILES | TGI (SF-539 CNS) [µM] | TGI (DU-145 prostate) [µM] | TGI (MDA-N) [µM] | TGI (UO-31 renal) [µM] | TGI (ACHN renal) [µM] | TGI (SK-MEL-28 melanoma) [µM] | TGI (OVCAR-4 ovarian) [µM] | TGI (NCI-H23 lung) [µM] | TGI (MALME-3M melanoma) [µM] | TGI (OVCAR-3 ovarian) [µM]
O=C(NC1=C(Cl)C(=O)c2ccccc2C1=O)C(=O)c1c(O)c2ccccc2oc1=O | 11.1 | 2.93 | 2.7 | 21.1 | 14 | 6.2 | 19.4 | 4.38 | 2.7 | 6.79
Cc1c2oc(=O)c(C#N)cc2c2ccccn12 | > 100 | > 100 | > 100 | > 100 | > 100 | > 100 | > 100 | > 100 | > 100 | 69.5
COc1ccc(Cn2c(=O)c(OS(=O)(=O)C(F)(F)F)c(C)c3cc4ccccc4cc32)cc1 | > 100 | > 100 | > 100 | > 100 | > 100 | > 100 | > 100 | > 100 | > 100 | > 100
CC1(C)CC(=O)C2=C(C1)NC(=S)C(C#N)C2c1ccccc1 (stereo not drawn) | > 100 | > 100 | > 100 | > 100 | > 100 | > 100 | > 100 | > 100 | > 100 | > 100
COC(=O)[C@@H]1C=CCN1S(=O)(=O)c1ccc(C)cc1 | > 100 | > 100 | > 100 | > 100 | > 100 | > 100 | > 100 | > 100 | > 100 | > 100
O=C(NNC(=O)c1ccc(Cl)cc1NC(=O)C12CC3CC(CC(C3)C1)C2)c1ccc(Cl)cc1 | 46.6 | 62.1 | 55.9 | 33.7 | 51.6 |  | > 100 | > 100 | 38.5 | 58.3
Oc1ccc(Nc2nc(Cl)c3[nH]cnc3n2)cc1 | > 100 | > 100 | > 100 | > 100 | > 100 |  | > 100 | > 100 | > 100 | > 100
CC(=O)c1c(-c2ccco2)c(C#N)c(=S)n(C2OC(CO)C(O)C(O)C2O)c1C (stereo not drawn) | > 100 | > 100 | > 100 | > 100 | > 100 | > 100 | > 100 | > 100 | > 100 | > 100
